Assay results: patent US8685977B2, “Chemical compounds” (Pfizer Limited, priority 2010, dated 2014)

molecular target: T1, Nav1.7 (or SCN9A) channel (Homo sapiens, UniProt Q15858); assay: Nav1.7 PatchXpress 7000 automated electrophysiology assay (HEK cells stably expressing hSCN9A); format: cell-based; conditions: voltage-clamped at V1/2 of inactivation, read-out: Nav1.7 EIC50
T1 construct: expressed in transfected cells
How it was run: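 Automated whole-cell clamp (PatchXpress) of HEK cells stably expressing hSCN9A, at 22-24 °C, in extracellular buffer at pH 7.4. Cells were held at the measured V1/2 of inactivation, then stepped to 0 mV for 20 ms. Single-concentration % inhibition gave EIC50 = concentration × (100 − %inhibition)/%inhibition, excluding <20% or >80%.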

T1 sequence (Q15858 whole entry): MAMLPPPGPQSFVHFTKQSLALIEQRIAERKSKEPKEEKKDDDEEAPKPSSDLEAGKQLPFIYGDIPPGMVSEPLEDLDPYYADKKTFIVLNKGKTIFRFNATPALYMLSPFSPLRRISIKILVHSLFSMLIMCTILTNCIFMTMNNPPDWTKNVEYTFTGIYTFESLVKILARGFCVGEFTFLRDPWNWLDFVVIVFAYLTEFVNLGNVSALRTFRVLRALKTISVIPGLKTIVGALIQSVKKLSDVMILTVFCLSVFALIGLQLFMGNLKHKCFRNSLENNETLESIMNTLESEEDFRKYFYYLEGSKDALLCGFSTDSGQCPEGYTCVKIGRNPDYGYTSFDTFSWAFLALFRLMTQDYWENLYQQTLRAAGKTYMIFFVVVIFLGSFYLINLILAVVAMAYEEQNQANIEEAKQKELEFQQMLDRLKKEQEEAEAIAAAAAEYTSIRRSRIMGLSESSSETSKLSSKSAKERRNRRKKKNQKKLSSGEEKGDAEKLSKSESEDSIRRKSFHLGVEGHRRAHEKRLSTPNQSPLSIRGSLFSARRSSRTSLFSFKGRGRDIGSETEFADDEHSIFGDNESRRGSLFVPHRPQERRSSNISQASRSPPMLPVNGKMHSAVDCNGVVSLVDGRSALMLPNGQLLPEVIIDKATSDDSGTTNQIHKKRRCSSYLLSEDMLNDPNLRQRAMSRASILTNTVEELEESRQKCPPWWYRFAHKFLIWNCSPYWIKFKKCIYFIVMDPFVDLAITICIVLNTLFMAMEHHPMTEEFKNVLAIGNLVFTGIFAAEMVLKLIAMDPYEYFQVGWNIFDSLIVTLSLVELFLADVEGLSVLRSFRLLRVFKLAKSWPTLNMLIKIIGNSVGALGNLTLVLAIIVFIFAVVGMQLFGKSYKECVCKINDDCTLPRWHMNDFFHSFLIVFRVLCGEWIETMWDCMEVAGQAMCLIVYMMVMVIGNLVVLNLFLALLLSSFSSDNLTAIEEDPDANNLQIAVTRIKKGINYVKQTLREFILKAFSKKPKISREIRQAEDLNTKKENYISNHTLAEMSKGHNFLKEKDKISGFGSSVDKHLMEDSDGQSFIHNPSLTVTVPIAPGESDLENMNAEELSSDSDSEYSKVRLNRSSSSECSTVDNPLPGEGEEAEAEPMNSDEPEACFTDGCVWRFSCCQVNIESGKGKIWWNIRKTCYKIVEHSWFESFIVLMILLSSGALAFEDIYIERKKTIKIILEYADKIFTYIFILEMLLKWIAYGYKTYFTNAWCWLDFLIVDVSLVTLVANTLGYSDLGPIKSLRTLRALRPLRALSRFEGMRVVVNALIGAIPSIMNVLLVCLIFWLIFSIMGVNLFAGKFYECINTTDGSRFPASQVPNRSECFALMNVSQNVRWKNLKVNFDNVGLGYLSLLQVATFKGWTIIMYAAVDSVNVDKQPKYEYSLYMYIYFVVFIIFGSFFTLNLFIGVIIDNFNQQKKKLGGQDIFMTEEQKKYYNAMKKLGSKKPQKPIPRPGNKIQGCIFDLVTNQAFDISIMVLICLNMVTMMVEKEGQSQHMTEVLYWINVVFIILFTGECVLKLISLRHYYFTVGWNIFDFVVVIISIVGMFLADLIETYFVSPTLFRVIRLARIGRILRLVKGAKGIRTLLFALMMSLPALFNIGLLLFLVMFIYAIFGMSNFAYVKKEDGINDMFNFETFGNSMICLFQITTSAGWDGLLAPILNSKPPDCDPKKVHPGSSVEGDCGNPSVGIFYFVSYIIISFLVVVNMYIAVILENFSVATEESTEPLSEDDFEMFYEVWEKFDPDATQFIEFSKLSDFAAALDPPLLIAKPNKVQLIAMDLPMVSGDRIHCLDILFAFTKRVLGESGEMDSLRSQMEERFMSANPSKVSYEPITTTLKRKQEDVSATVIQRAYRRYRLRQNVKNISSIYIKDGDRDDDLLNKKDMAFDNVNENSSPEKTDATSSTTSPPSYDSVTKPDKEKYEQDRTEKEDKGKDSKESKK

SMILES | IC50 [µM]
CS(=O)(=O)NC(=O)c1cc(F)c(Oc2cc(F)cc(F)c2F)cc1F [Example 97, 2,5-difluoro-N-(methylsulfonyl)-4-(2,3,5-trifluorophenoxy)benzamide] | 7
CCOc1ccccc1Oc1cc(F)c(C(=O)NS(C)(=O)=O)cc1F [Example 98, 4-(2-ethoxyphenoxy)-2,5-difluoro-N-(methylsulfonyl)benzamide] | > 1
CS(=O)(=O)NC(=O)c1cc(F)c(Oc2cc(Cl)cc(Cl)c2)cc1F [Example 101, 4-(3,5-dichlorophenoxy)-2,5-difluoro-N-(methylsulfonyl)benzamide] | 1.5
Cc1cccc(C)c1Oc1cc(F)c(C(=O)NS(C)(=O)=O)cc1F [Example 104, 4-(2,6-dimethylphenoxy)-2,5-difluoro-N-(methylsulfonyl)benzamide] | > 3
CS(=O)(=O)NC(=O)c1cc(F)c(Oc2cc(Cl)ccc2Cl)cc1F [Example 105, 4-(2,5-dichlorophenoxy)-2,5-difluoro-N-(methylsulfonyl)benzamide] | > 3
COc1ccc(Cl)c(Oc2cc(F)c(C(=O)NS(C)(=O)=O)cc2F)c1 [Example 109, 4-(2-chloro-5-methoxyphenoxy)-2,5-difluoro-N-(methylsulfonyl)benzamide] | > 1
Cc1ccc(Cl)c(Oc2cc(F)c(C(=O)NS(C)(=O)=O)cc2F)c1 [Example 110, 4-(2-chloro-5-methylphenoxy)-2,5-difluoro-N-(methylsulfonyl)benzamide] | > 1
CS(=O)(=O)NC(=O)c1cc(F)c(Oc2ccccc2C(F)(F)F)cc1F [Example 113, 2,5-difluoro-N-(methylsulfonyl)-4-[2-(trifluoromethyl)phenoxy]benzamide] | > 3
COc1ccc(Oc2cc(F)c(C(=O)NS(C)(=O)=O)cc2F)c(C#N)c1 [Example 116, 4-(2-cyano-4-methoxyphenoxy)-2,5-difluoro-N-(methylsulfonyl)benzamide] | > 3
CS(=O)(=O)NC(=O)c1cc(F)c(Oc2ccc(Cl)cc2Cl)cc1F [Example 123, 4-(2,4-dichlorophenoxy)-2,5-difluoro-N-(methylsulfonyl)benzamide] | 2
CS(=O)(=O)NC(=O)c1cc(F)c(Oc2cccc(OC(F)(F)F)c2)cc1F [Example 124, 2,5-difluoro-N-(methylsulfonyl)-4-[3-(trifluoromethoxy)phenoxy]benzamide] | 0.49
CS(=O)(=O)NC(=O)c1cc(F)c(Oc2cccc(C#N)c2)cc1F [Example 125, 4-(3-cyanophenoxy)-2,5-difluoro-N-(methylsulfonyl)benzamide] | > 3
CS(=O)(=O)NC(=O)c1cc(F)c(Oc2cc(F)cc(F)c2)cc1F [Example 128, 4-(3,5-difluorophenoxy)-2,5-difluoro-N-(methylsulfonyl)benzamide] | 11
CS(=O)(=O)NC(=O)c1cc(F)c(Oc2ccc(F)cc2C#N)cc1F [Example 130, 4-(2-cyano-4-fluorophenoxy)-2,5-difluoro-N-(methylsulfonyl)benzamide] | > 3
CS(=O)(=O)NC(=O)c1cc(F)c(Oc2cccc(C(F)(F)F)c2)cc1F [Example 138, 2,5-difluoro-N-(methylsulfonyl)-4-[3-(trifluoromethyl)phenoxy]benzamide] | 6.6
CS(=O)(=O)NC(=O)c1cc(F)c(Oc2cccc(F)c2)cc1F [Example 142, 2,5-difluoro-4-(3-fluorophenoxy)-N-(methylsulfonyl)benzamide] | > 3
COc1ccc(Oc2cc(F)c(C(=O)NS(C)(=O)=O)cc2F)c(Cl)c1 [Example 146, 4-(2-chloro-4-methoxyphenoxy)-2,5-difluoro-N-(methylsulfonyl)benzamide] | > 3
CCc1cccc(Oc2cc(F)c(C(=O)NS(C)(=O)=O)cc2F)c1 [Example 147, 4-(3-ethylphenoxy)-2,5-difluoro-N-(methylsulfonyl)benzamide] | > 3
CCOc1cc(C)ccc1Oc1cc(F)c(C(=O)NS(C)(=O)=O)cc1F [Example 148, 4-(2-ethoxy-4-methylphenoxy)-2,5-difluoro-N-(methylsulfonyl)benzamide] | > 1
Cc1ccc(Oc2cc(F)c(C(=O)NS(C)(=O)=O)cc2F)cc1Cl [Example 151, 4-(3-chloro-4-methylphenoxy)-2,5-difluoro-N-(methylsulfonyl)benzamide] | 0.52
Cc1cc(F)ccc1Oc1cc(F)c(C(=O)NS(C)(=O)=O)cc1F [Example 154, 2,5-difluoro-4-(4-fluoro-2-methylphenoxy)-N-(methylsulfonyl)benzamide] | > 3

Other lines, results leading:

IC50 [µM] | SMILES
1.1 | CS(=O)(=O)NC(=O)c1cc(F)c(Oc2ccc(OC(F)(F)F)cc2)cc1F [Example 100, 2,5-difluoro-N-(methylsulfonyl)-4-[4-(trifluoromethoxy)phenoxy]benzamide]
3.7 | Cc1cc(Cl)ccc1Oc1cc(F)c(C(=O)NS(C)(=O)=O)cc1F [Example 102, 4-(4-chloro-2-methylphenoxy)-2,5-difluoro-N-(methylsulfonyl)benzamide]
3.2 | CS(=O)(=O)NC(=O)c1cc(F)c(Oc2ccccc2OC(F)(F)F)cc1F [Example 103, 2,5-difluoro-N-(methylsulfonyl)-4-[2-(trifluoromethoxy)phenoxy]benzamide]
9.3 | CS(=O)(=O)NC(=O)c1cc(F)c(Oc2ccccc2F)cc1F [Example 107, 2,5-difluoro-4-(2-fluorophenoxy)-N-(methylsulfonyl)benzamide]
> 3 | Cc1ccccc1Oc1cc(F)c(C(=O)NS(C)(=O)=O)cc1F [Example 111, 2,5-difluoro-4-(2-methylphenoxy)-N-(methylsulfonyl)benzamide]
> 3 | Cc1cc(Oc2cc(F)c(C(=O)NS(C)(=O)=O)cc2F)cc(C)c1C#N [Example 112, 4-(4-cyano-3,5-dimethylphenoxy)-2,5-difluoro-N-(methylsulfonyl)benzamide]
> 3 | Cc1ccc(F)cc1Oc1cc(F)c(C(=O)NS(C)(=O)=O)cc1F [Example 115, 2,5-difluoro-4-(5-fluoro-2-methylphenoxy)-N-(methylsulfonyl)benzamide]
> 3 | CS(=O)(=O)NC(=O)c1cc(F)c(Oc2ccc(F)cc2Cl)cc1F [Example 120, 4-(2-chloro-4-fluorophenoxy)-2,5-difluoro-N-(methylsulfonyl)benzamide]
> 1 | CS(=O)(=O)NC(=O)c1cc(F)c(Oc2cc(C(F)(F)F)ccc2Cl)cc1F [Example 121, 4-[2-chloro-5-(trifluoromethyl)phenoxy]-2,5-difluoro-N-(methylsulfonyl)benzamide]
4.4 | Cc1ccc(F)c(Oc2cc(F)c(C(=O)NS(C)(=O)=O)cc2F)c1 [Example 122, 2,5-difluoro-4-(2-fluoro-5-methylphenoxy)-N-(methylsulfonyl)benzamide]
> 1 | CS(=O)(=O)NC(=O)c1cc(F)c(Oc2ccc(F)cc2C2CC2)cc1F [Example 126, 4-(2-cyclopropyl-4-fluorophenoxy)-2,5-difluoro-N-(methylsulfonyl)benzamide]
> 3 | Cc1ccc(C)c(Oc2cc(F)c(C(=O)NS(C)(=O)=O)cc2F)c1 [Example 127, 4-(2,5-dimethylphenoxy)-2,5-difluoro-N-(methylsulfonyl)benzamide]
1.3 | CS(=O)(=O)NC(=O)c1cc(F)c(Oc2ccc(Cl)cc2)cc1F [Example 129, 4-(4-chlorophenoxy)-2,5-difluoro-N-(methylsulfonyl)benzamide]
3.8 | CS(=O)(=O)NC(=O)c1cc(F)c(Oc2ccc(F)cc2)cc1F [Example 131, 2,5-difluoro-4-(4-fluorophenoxy)-N-(methylsulfonyl)benzamide]
> 3 | Cc1cc(C#N)cc(C)c1Oc1cc(F)c(C(=O)NS(C)(=O)=O)cc1F [Example 132, 4-(4-cyano-2,6-dimethylphenoxy)-2,5-difluoro-N-(methylsulfonyl)benzamide]
> 3 | Cc1ccc(Cl)cc1Oc1cc(F)c(C(=O)NS(C)(=O)=O)cc1F [Example 133, 4-(5-chloro-2-methylphenoxy)-2,5-difluoro-N-(methylsulfonyl)benzamide]
> 3 | COc1cccc(Oc2cc(F)c(C(=O)NS(C)(=O)=O)cc2F)c1 [Example 134, 2,5-difluoro-4-(3-methoxyphenoxy)-N-(methylsulfonyl)benzamide]
> 3 | COc1cc(C#N)ccc1Oc1cc(F)c(C(=O)NS(C)(=O)=O)cc1F [Example 135, 4-(4-cyano-2-methoxyphenoxy)-2,5-difluoro-N-(methylsulfonyl)benzamide]
2.5 | Cc1ccc(Oc2cc(F)c(C(=O)NS(C)(=O)=O)cc2F)cc1C [Example 141, 4-(3,4-dimethylphenoxy)-2,5-difluoro-N-(methylsulfonyl)benzamide]
4.7 | CS(=O)(=O)NC(=O)c1cc(F)c(Oc2ccc(Cl)c(F)c2)cc1F [Example 143, 4-(4-chloro-3-fluorophenoxy)-2,5-difluoro-N-(methylsulfonyl)benzamide]
2.3 | COc1cc(Cl)cc(Oc2cc(F)c(C(=O)NS(C)(=O)=O)cc2F)c1 [Example 144, 4-(3-chloro-5-methoxyphenoxy)-2,5-difluoro-N-(methylsulfonyl)benzamide]
1.2 | Cc1cc(Oc2cc(F)c(C(=O)NS(C)(=O)=O)cc2F)ccc1F [Example 145, 2,5-difluoro-4-(4-fluoro-3-methylphenoxy)-N-(methylsulfonyl)benzamide]
> 1 | CS(=O)(=O)NC(=O)c1cc(F)c(Oc2cccc(Cl)c2F)cc1F [Example 149, 4-(3-chloro-2-fluorophenoxy)-2,5-difluoro-N-(methylsulfonyl)benzamide]
5.4 | Cc1cc(Cl)cc(Oc2cc(F)c(C(=O)NS(C)(=O)=O)cc2F)c1 [Example 155, 4-(3-chloro-5-methylphenoxy)-2,5-difluoro-N-(methylsulfonyl)benzamide]
